# How the values were obtained:
# Experiment in all cases: relative viability (nuclei count vs DMSO), 5 days (fraction); higher = more cells survive
# [1] = compound: C1=CC2=C(C=C(C(=C2N=C1)O)N=NC3=CC4=C(C=C3)C=C(C=C4)S(=O)(=O)O)S(=O)(=O)O + COc1cc2c(Oc3ccc(NC(=O)C4(C(=O)Nc5ccc(F)cc5)CC4)cc3F)ccnc2cc1OCCCN1CCOCC1 [Foretinib] (partner 0.25 µM)
# Procedure, shortened: (§1)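 For relative viability, nuclei counts in treated wells were divided by those in vehicle wells. Lung cancer cell lines had been pin-tool dosed in 1536-well plates the day after seeding and cultured for 5 days, then fixed and stained in one step (final 0.05% Triton X-100, 1% formaldehyde, 1 ug/ml Hoechst) and imaged at 4×. Doses were one drug alone or a fixed anchor-drug dose plus five library-drug doses (not always all listed) in √10 steps, and values are duplicate-plate medians.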
# [2] = compound: O=C(NC1CCNCC1)c1n[nH]cc1NC(=O)c1c(Cl)cccc1Cl [AT-7519] + CS(=O)(=O)N1CCN(Cc2cc3nc(-c4cccc5[nH]ncc45)nc(N4CCOCC4)c3s2)CC1 [Pictilisib] (partner 1 µM)
# Procedure, shortened: as §1
# [3] = compound: C1=CC2=C(C=C(C(=C2N=C1)O)N=NC3=CC4=C(C=C3)C=C(C=C4)S(=O)(=O)O)S(=O)(=O)O + C[C@@H](Oc1cc(-c2cnn(C3CCNCC3)c2)cnc1N)c1c(Cl)ccc(F)c1Cl [Crizotinib] (partner 1 µM)
# Procedure, shortened: as §1
# [4] = compound: C1=CC2=C(C=C(C(=C2N=C1)O)N=NC3=CC4=C(C=C3)C=C(C=C4)S(=O)(=O)O)S(=O)(=O)O + C[C@]1(O)C[C@@H](c2nc(-c3ccc4ccc(-c5ccccc5)nc4c3)c3c(N)nccn32)C1 [Linsitinib] (partner 1 µM)
# Procedure, shortened: as §1
Cell Line,relative viability ([1]; first compound 0.08 µM),relative viability ([1]; first compound 0.253 µM),relative viability ([1]; first compound 0.8 µM),relative viability ([1]; first compound 2.53 µM),relative viability ([1]; first compound 8 µM),relative viability ([2]; first compound 0.01 µM),relative viability ([2]; first compound 0.03162 µM),relative viability ([2]; first compound 0.3162 µM),relative viability ([2]; first compound 1 µM),relative viability ([3]; first compound 0.08 µM),relative viability ([3]; first compound 0.253 µM),relative viability ([3]; first compound 0.8 µM),relative viability ([3]; first compound 2.53 µM),relative viability ([3]; first compound 8 µM),relative viability ([4]; first compound 0.08 µM),relative viability ([4]; first compound 0.253 µM),relative viability ([4]; first compound 0.8 µM),relative viability ([4]; first compound 2.53 µM),relative viability ([4]; first compound 8 µM)
NCI-H2087,1.07,1.14,0.873,1.1,0.921,1.02,0.882,0.593,0.173,1.04,0.952,0.957,0.694,0.833,1,1.12,0.82,0.964,1.15
NCI-H1437,1.33,1.23,1.32,1.27,0.66,0.471,0.392,0.29,0.133,1.07,0.894,0.897,0.909,0.919,1.14,1.06,0.99,1.01,1.03
NCI-H650,1.13,1.07,1.01,1.02,1.06,0.868,0.851,0.84,0.672,0.738,0.79,0.764,0.712,0.818,0.652,0.755,0.884,0.769,0.576
COR-L23,1.01,0.961,1.02,1.06,0.995,0.728,0.598,0.291,0.0899,0.653,0.63,0.572,0.671,0.502,1.01,0.927,0.925,0.87,0.753
COR-L 105,0.961,0.94,1.03,1.02,0.886,0.372,0.423,0.254,0.246,0.999,0.71,0.797,0.881,0.717,0.931,0.939,1.04,0.985,1.01
LK-2,1.33,1.3,0.899,0.911,1.37,0.785,0.503,0.497,0.265,0.275,0.223,0.244,0.218,0.162,0.797,0.724,0.551,0.573,0.472
201T,1.21,1.14,1.15,1.15,1.05,0.684,0.712,0.7,0.77,1.1,1.07,1.02,1.09,0.995,1.05,1.01,1,1.05,1.07
NCI-H596,0.902,0.904,0.82,1.01,0.737,0.389,0.433,0.414,0.347,1.13,1.02,0.921,0.899,0.898,1.02,1.07,1.1,1.14,1.15

# Reference: the supplement of paper PMC10307832
